Data taken from US6525089B1, “Pharmaceutical composition containing decursin” (Binex Co., Ltd., priority 1998, dated 2003).
Several values for one entry are separate records, joined by “and”; a condition that tells them apart may be missing. Equal values may be shown once. Read-outs that look alike come from different tables or passages of the source.

Experiments:
U-937 cells [1] = test: Phagocytosis test; type: cell-based, human; conditions: 1 × 10^−7M, incubated 4 days
Protocol: U-937 cells were plated on a cell culture dish at a concentration of 2×10^5 cells/ml in a medium containing 10^−7M decursin and incubated in a 5% CO2 incubator at 37° C.
In the phagocytosis test, 10^6 cells were well stirred and pelleted by centrifugation at 2000 rpm for 5 minutes. 1 ml of 0.2% serum free medium solution in polystyrene particle were added to the pellets, swayed and incubated at 37° C. for 4 hours. After being washed with phosphate buffered saline (PBS) three times, cell pellets were harvested and then about 200 μl of DPBS was added. The solution was lightly swayed and checked under a microscope to observe a minimum number of 200 cells. The number of cells containing the particles was calculated by percentage.
The results of phagocytosis test designed to assess the functional change according to differentiation of U-937 cells was shown in the following Table 8.

ICR mice [2] = test: Urinary test, alloxan-treated mice; type: in vivo; conditions: Alloxan + decursin group (50 mg/kg orally, 10 days)
Protocol: (§1) 2 days after ICR mice were given alloxan (75 mg/kg, i.v.), their glucose levels at fasting were measured to select high-glucose mice. The high-glucose mice were divided into two groups; physiological saline solution was given to one group, while decursin was orally administered to the other group at a dose of 50 mg/kg for 10 days. The alloxan-free group was also orally given physiological saline solution for 10 days. The body weighs were checked periodically, together with urinary tests. To isolate their sera and kidney, mice were slightly anesthetized with ether and their abdomens were dissected. The blood samples were collected from heart to isolate the sera. The kidney was perfused with 0.9% NaCl and isolated after removal of the blood. Then the weight of right kidney was measured. Further, to measure the protein amount from the kidney tissues, these tissues were assayed according to the Bradford method using Bio-Rad protein assay kit in the presence of bovine serum albumin as a reference standard. To measure the MDA in the kidney tissues, 0.4 ml of 10% sodium dodecylsulfate was added to 0.5 ml of 10% kidney-tissue homogenization solution and left in water bath at 37° C. for 30 minutes; With the subsequent addition of 0.1N-HCl (2 ml) and 0.67% TBA (1 ml), the mixture was voltexed and left in boiling water bath for 30 minutes. The mixture was further cooled in ice bath for 2˜3 minutes to stop the reaction. Then 2 ml of n-butanol was added to the mixture, stirred well and centrifuged at 3000 rpm for 10 minutes. The supernatant was collected to measure the absorbance at 532 nm. 10 μg/ml tetraethoxypropane (TEP) was employed as a reference standard. To measure the MDA in sera, 0.8% thiobarbituric acid (TBA) was added to 0.5 ml of sera and left in boiling water bath for 30 minutes. The mixture was further cooled in ice bath for 2˜3 minutes to stop the reaction. The supernatant was collected to measure the absorbance at 532 nm. 10 μg/ml TEP was employed as a reference standard.

[3] = type: in vivo, rat; conditions: individual rats 1-4, start 200 g, four days after treatment
Protocol: A total of 10 male SD rats (body weight: 200 g) were used for this experiment. […] The animals were sacrificed and again weighed four days after treatment. […] Blood samples were also taken and left to sit for 30 minutes to isolate the sera, which was used to determine BUN, creatinine and sGPT values as markers of […].

ICR mice [4] = test: BUN and MDA in blood and MDA in renal tissue, alloxan-treated mice; type: in vivo; conditions: alloxan 75 mg/kg i.v. + decursin 50 mg/kg orally for 10 days
Protocol: as §1
Mice were orally given decursin at a dose of 50 mg/kg for 10 days continuously. Then various parameters such as BUN and MDA in the blood as a marker of renal failure were measured, together with urinary test. When […] (table 4), the BUN value of single alloxan-treated group, 17.4±3.7 mg/dl was recovered to the normal level (4.8±0.6 mg/dl) by the treatment of decursin. The MDA value of single alloxan-treated group, 0.51±0.07, was reduced to 0.36±0.03 by the treatment of decursin, which was similar to a normal control group. Thus it was noted that the damage in the kidney was completely recovered. Since the reduction of both MDA values in the blood and kidney tissues may be clinically reasonable and desirable, the MDA value in the kidney tissues was measured. As a result, the MDA value in the kidney tissues of a single alloxan-treated group, 13.24±5.93, was reduced to 5.63±0.99 by the treatment of decursin, which was lower than that of normal control group (8.44±1.01).

U-937 cells [5] = test: Esterase activity test: naphthol AS-D chloroacetate esterase; type: cell-based, human; conditions: percentage of cells showing activity
Protocol: To determine naphthol AS-D chloroacetate esterase activity, the cultured solution of U-937 cells was pelleted by centrifugation at 2000 rpm for 5 minutes, followed by the addition of 100 μl PBS to prepare a cell-concentrated solution. A drop of the cell solution was put on a slide glass and dried for more than 1 hour. Then 40 ml of deionized water was preheated at 37° C. 1 ml of […] solution was mixed with 1 ml of Fast Red Violet LB base solution and left for 2 minutes. The mixture was added to 40 ml of preheated deionized water. After the addition of 5 ml of TRIZMAL TM 6.3) buffer solution (Sigma Co. T-3128) and 1 ml of naphthol AS-D chloroacetate solution, the resulting solution, which was turned to red color was poured on a petri dish. The cells on a slide glass were fixed with citrate-acetone-formaldehyde solution, (CAF solution) at room temperature. The cells were soaked in the previously prepared solution and incubated at 37° C. for 30 minutes at a dark place. The cells were completely washed with deionized water for more than 2 minutes and counterstained with hematoxylin solution for 2 minutes, washed with tap water and dried in the air. After completely dried, the cells were observed under a microscope to calculate the reddish cell numbers by percentage.
Thus it was considered that the cells were differentiated into macrophage.like cells by the action of decursin.

[6] = Body weight, alloxan-treated mice; type: in vivo; conditions: ICR mice, alloxan + decursin 50 mg/kg orally for 10 days
Protocol: 2 days after ICR mice were given alloxan (75 mg/kg, i.v.), their glucose levels at fasting were measured to select high-glucose mice. The high-glucose mice were divided into two groups; physiological saline solution was given to one group, while decursin was orally administered to the other group at a dose of 50 mg/kg for 10 days. The alloxan-free group was also orally given physiological saline solution for 10 days. The body weighs were checked periodically, together with urinary tests. To isolate their sera and kidney, mice were slightly anesthetized with ether and their abdomens were dissected. The blood samples were collected from heart to isolate the sera. The kidney was perfused with 0.9% NaCl and isolated after removal of the blood. Then the weight of right kidney was measured. Further, to measure the protein amount from the kidney tissues, these tissues were assayed according to the Bradford method using Bio-Rad protein assay kit in the presence of bovine serum albumin as a reference standard. […] The supernatant was collected to measure the absorbance at 532 nm. […] The supernatant was collected to measure the absorbance at 532 nm. […]

CC(C)=CC(=O)O[C@H]1Cc2cc3ccc(=O)oc3cc2OC1(C)C [decursin]
Phagocytosis test: cells showing phagocytosis activity (U-937 cells [1]): 28.6% | Phagocytosis test: cells showing phagocytosis activity (U-937 cells [1]; listed as Decursin): 28.6 ± 1.2% | Urinary test Bilirubin: count in category + (ICR mice [2]): 2 | Urinary test Bilirubin: count in category − (ICR mice [2]): 8 | Urinary test Glucose: count in category + (ICR mice [2]): 1 | Urinary test Glucose: count in category − (ICR mice [2]): 9 | Urinary test Ketone: count in category − (ICR mice [2]): 10 | Urinary test Nitrite: count in category − (ICR mice [2]): 10 | Urinary test Occult blood: count in category + (ICR mice [2]): 2 | Urinary test Occult blood: count in category − (ICR mice [2]): 8 | Urinary test Protein: count in category − (ICR mice [2]): 10 | Urinary test Specific gravity: count in category − (ICR mice [2]): 10 | Urinary test Urobilinogen: count in category + (ICR mice [2]): 1 | Urinary test Urobilinogen: count in category − (ICR mice [2]): 9 | Urinary test pH: count in category − (ICR mice [2]): 10 | Body weight ([3]; post-treatment group (decursin after cisplatin)): 190 g and 185 g and 180 g (2×) | Body weight ([3]; pre-treatment group (decursin before cisplatin)): 184 g and 190 g and 180 g (2×) | BUN (ICR mice [4]): 4.8 ± 0.6 mg/dL | MDA in blood (ICR mice [4]): 0.36 ± 0.03 µg/mL | MDA in renal tissue (ICR mice [4]): 5.63 ± 0.99 µg/g | Naphtol AS-D chloroacetate esterase Activity (%) (U-937 cells [5]): 0.0% | weight loss of the alloxan-treated group [6]: significantly reduced
